{"source": "paper PMC6832239", "about": "“The Effects of a Novel Series of KTTKS Analogues on Cytotoxicity and Proteolytic Activity” (Molecules, 2019)", "key": {"[1]": {"assay": "Viability of fibroblast cells, MTT assay", "type": "cell-based, Human", "conditions": "human, primary dermal fibroblast cells, 24 h, MTT, ± 2, read-out: Viability of fibroblast cells", "procedure": "Viability of fibroblast cells was examined with the use of the MTT assay. MTT, a yellow tetrazole, is reduced to purple formazan only in living cells. Absorbance of the coloured solution was measured by a spectrophotometer.\nThese studies were performed on primary dermal fibroblasts cells. The cells were maintained in DMEM supplemented with 10% fetal bovine serum (FBS), 2 mM glutamin, 50 U/mL penicillin and […] streptomycin at 37 °C in a 5% CO2 incubator. For experiments, cells cultures were plated at a density of 1 × 10^6/well in six-well culture plates (Costar, St. Louis, MO, USA) in 2 mL of growth medium. Cells reached about 80% of confluency at day 2 were used for the assays.\nToxicity of the tested substances was determined using an MTT [3-(4,5-dimethylthiazol-2-yl)-2,5-diphenyltetrazolium bromide)] assay. Palmitoyl and lipoyl peptides were dissolved in DMSO (dimethyl sulfoxide), the other peptides in DMEM, and added to the cell culture medium. Simultaneously, the same concentrations of DMSO without peptides were added to cells, serving as controls. The final peptide concentrations were: 1 μM, 10 μM, and 100 μM. After 24 h incubation, the cells cultured with the tested compounds were washed with phosphate-buffered saline (PBS) and then incubated for 4 h in 2 mL of MTT solution (5 mg/mL). After removing the medium, the cells were lysed in 200 μL of DMSO with 20 μL of Sorensen’s buffer (pH 10.5, 0.1 mol/L glycine with 0.1 mol/L NaCl). The absorbance of converted dye in living cells was measured at a wavelength of 570 nm. The mean values ± SD from three independent experiments done in duplicate are presented."}, "plasmin": {"molecular_target": "T1, plasmin (Homo sapiens, UniProt P00747)", "T1 construct": "purchased Chromogenix (Milano, Italy)", "T1 sequence (P00747 581-810 limits assumed)": "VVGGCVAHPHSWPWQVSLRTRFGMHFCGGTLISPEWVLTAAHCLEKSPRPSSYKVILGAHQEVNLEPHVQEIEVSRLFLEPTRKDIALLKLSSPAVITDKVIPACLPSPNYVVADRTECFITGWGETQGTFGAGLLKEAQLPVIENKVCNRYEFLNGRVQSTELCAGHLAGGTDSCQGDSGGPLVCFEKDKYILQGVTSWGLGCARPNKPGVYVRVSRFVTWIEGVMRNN", "T1 sequence (P00747 97-580 partner limits assumed)": "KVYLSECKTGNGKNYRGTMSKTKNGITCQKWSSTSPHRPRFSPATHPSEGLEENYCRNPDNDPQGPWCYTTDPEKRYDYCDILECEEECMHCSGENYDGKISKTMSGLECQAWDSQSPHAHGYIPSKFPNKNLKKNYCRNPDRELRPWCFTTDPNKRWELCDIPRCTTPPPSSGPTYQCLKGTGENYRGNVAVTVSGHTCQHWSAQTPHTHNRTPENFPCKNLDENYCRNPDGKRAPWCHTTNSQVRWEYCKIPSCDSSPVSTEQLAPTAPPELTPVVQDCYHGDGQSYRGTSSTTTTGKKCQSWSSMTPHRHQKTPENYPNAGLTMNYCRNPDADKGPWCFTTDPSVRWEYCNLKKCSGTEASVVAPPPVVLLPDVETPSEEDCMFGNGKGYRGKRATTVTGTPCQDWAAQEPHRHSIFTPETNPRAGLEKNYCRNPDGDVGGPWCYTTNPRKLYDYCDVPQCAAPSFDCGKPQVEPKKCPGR", "assay": "Amidolytic activity of plasmin (chromogenic substrate H-D-Val-Leu-Lys-pNA)", "type": "biochemical", "procedure": "(§1) The determination of amidolytic activity was performed as previously described by Okada. A detailed description of the method is given below: 0.2 mL of the examined peptides (0.15 M NaCl as contro), a buffer, and 0.1 mL of enzyme solution were mixed. The final peptide concentrations were: 0.2 mM, 2 mM, and 20 mM. The mixture was incubated at 37 °C for 3 min; then the synthetic substrate solution was added in the same buffer. After 20 min of incubation, the reaction was stopped by adding 0.1 mL of 50% acetic acid and the absorbance of the released p-nitroaniline was measured at 405 nm. The mean values from three independent experiments done in duplicate are presented. A method error of 5% was adopted as statistical error. IC50 value was considered as the concentration of inhibitor that reduces absorbance by 50%, compared with absorbance measured under the same conditions without an inhibitor. IC50 was calculated mathematically by extrapolation using a linear plot. IC50 values are presented in Table 1 and Table 2, and graphically in Figure 1.\n(§2) The buffers and the enzyme solutions included: • Tris buffer—0.6 mL (pH 8.8), enzyme: urokinase (50 units/mL), synthetic substrate: pyro-Glu-Gly-Arg-pNA·HCl (0.1 mL, 3 mM); • Tris buffer—0.5 mL (pH 8.4), enzyme: thrombin (1 units/mL), synthetic substrate: H-D-Phe-Pip-Arg-pNA (0.2 mL, 0.75 mM); • Tris buffer—0.5 mL (pH 7.4), enzyme: plasmin (0.4 units/mL), synthetic substrate: H-D-Val-Leu-Lys-pNA (0.2 mL, 3 mM); • Borate buffer—0.5 mL (pH 7.5), enzyme: trypsin (0.4 units/mL), synthetic substrate: Bzl-L-Arg-pNA·HCl (0.2 mL, 8 mM); • Tris buffer—0.6 mL (pH 9.0), enzyme: kallikrein (3 units/mL), synthetic substrate: H-D-Val-Leu-Arg-pNA·2HCl (0.1 mL, 75 mM); • Tris buffer—0.6 mL (pH 8.4), enzyme: t-PA ([…]), synthetic substrate: H-D-Ile-Pro-Arg-pNA (0.1 mL, 10 mM) • Tris buffer—0.6 mL (pH 9.0), enzyme: chymotrypsin (0.4 units/mL), synthetic substrate: Suc-Phe-pNA (0.2 mL, 8 mM)"}, "urokinase": {"molecular_target": "T2, urokinase (Homo sapiens, UniProt P00749)", "T2 construct": "purchased Sigma (Schnelldorf, Germany)", "assay": "Amidolytic activity of urokinase (chromogenic substrate pyro-Glu-Gly-Arg-pNA)", "type": "biochemical", "procedure": "as §1, §2"}, "thrombin": {"molecular_target": "T3, thrombin (Bos taurus, UniProt P00735)", "T3 construct": "purchased Lubelska Wytwórnia Szczepionek (Lublin, Poland)", "assay": "Amidolytic activity of thrombin (chromogenic substrate H-D-Phe-Pip-Arg-pNA)", "type": "biochemical", "conditions": "amidolytic activity; Tris pH 8.4, 37 °C; IC50 by extrapolation using a linear plot; error 5%; read-out: IC50 Thrombin", "procedure": "The determination of amidolytic activity was performed as previously described by Okada. A detailed description of the method is given below: 0.2 mL of the examined peptides (0.15 M NaCl as contro), a buffer, and 0.1 mL of enzyme solution were mixed. The final peptide concentrations were: 0.2 mM, 2 mM, and 20 mM. The mixture was incubated at 37 °C for 3 min; then the synthetic substrate solution was added in the same buffer. […] The mean values from three independent experiments done in duplicate are presented. A method error of 5% was adopted as statistical error. […] IC50 was calculated mathematically by extrapolation using a linear plot."}, "[2]": {"conditions": "amidolytic activity, Tris pH 8.8, 37 °C, IC50 by extrapolation using a linear plot, error 5%, read-out: IC50 Urokinase"}, "[3]": {"conditions": "amidolytic activity, Tris pH 7.4, 37 °C, IC50 by extrapolation using a linear plot, error 5%, read-out: IC50 Plasmin"}}, "note": "Where two headings read alike, the source gives them in different places. Residues, ends and D or L forms follow the SMILES beside them.", "data": [{"compound": "CCCCCCCCCCCCCCCC(=O)N[C@@H](CCCCN)C(=O)N[C@H](C(=O)N[C@H](C(=O)N[C@@H](CCCCN)C(=O)N[C@@H](CO)C(N)=O)[C@@H](C)O)[C@@H](C)O", "note": "[Peptide 8, Pal-Lys-Thr-Thr-Lys-Ser-NH2] (HELM PEPTIDE1{[CCCCCCCCCCCCCCCC(=O)[*:2]].K.T.T.K.S.[am]}$$$$V2.0)", "values": [{"measurement": "viability at 24 h, 1 µmol/L", "setting": "[1]", "value": 96, "unit": "%"}, {"measurement": "viability at 24 h, 10 µmol/L", "setting": "[1]", "value": 83, "unit": "%"}, {"measurement": "viability at 24 h, 100 µmol/L", "setting": "[1]", "value": 83, "unit": "%"}, {"measurement": "IC50", "setting": "plasmin; amidolytic activity, palmitic peptides, read-out: IC50 plasmin (text, micromolar)", "value": "< 200", "unit": "µM"}, {"measurement": "IC50", "setting": "urokinase; [2]", "value": "3120 ± 160", "unit": "µM"}]}, {"compound": "CCCCCCCCCCCCCCCC(=O)N[C@@H](CCCCN)C(=O)N[C@H](C(=O)N[C@H](C(=O)N[C@@H](CCCNC(=N)N)C(=O)N[C@@H](CO)C(=O)O)[C@@H](C)O)[C@@H](C)O", "note": "[Peptide 12, Pal-Lys-Thr-Thr-Arg-Ser-OH] (HELM PEPTIDE1{[CCCCCCCCCCCCCCCC(=O)[*:2]].K.T.T.R.S}$$$$V2.0)", "values": [{"measurement": "viability at 24 h, 1 µmol/L", "setting": "[1]", "value": 103, "unit": "%"}, {"measurement": "viability at 24 h, 10 µmol/L", "setting": "[1]", "value": 98, "unit": "%"}, {"measurement": "viability at 24 h, 100 µmol/L", "setting": "[1]", "value": 99, "unit": "%"}]}, {"compound": "CCCCCCCCCCCCCCCC(=O)N[C@@H](CCCCN)C(=O)N[C@H](C(=O)N[C@H](C(=O)N[C@@H](CCCNC(=N)N)C(=O)N[C@@H](CO)C(N)=O)[C@@H](C)O)[C@@H](C)O", "note": "[Peptide 16, Pal-Lys-Thr-Thr-Arg-Ser-NH2] (HELM PEPTIDE1{[CCCCCCCCCCCCCCCC(=O)[*:2]].K.T.T.R.S.[am]}$$$$V2.0)", "values": [{"measurement": "viability at 24 h, 1 µmol/L", "setting": "[1]", "value": 104, "unit": "%"}, {"measurement": "viability at 24 h, 10 µmol/L", "setting": "[1]", "value": 114, "unit": "%"}, {"measurement": "viability at 24 h, 100 µmol/L", "setting": "[1]", "value": 115, "unit": "%"}, {"measurement": "IC50", "setting": "urokinase", "value": "2370 ± 120", "unit": "µM"}]}, {"compound": "CCCCCCCCCCCCCCCC(=O)N[C@@H](CCCNC(=N)N)C(=O)N[C@H](C(=O)N[C@H](C(=O)N[C@@H](CCCNC(=N)N)C(=O)N[C@@H](CO)C(N)=O)[C@@H](C)O)[C@@H](C)O", "note": "[Peptide 24, Pal-Arg-Thr-Thr-Arg-Ser-NH2] (HELM PEPTIDE1{[CCCCCCCCCCCCCCCC(=O)[*:2]].R.T.T.R.S.[am]}$$$$V2.0)", "values": [{"measurement": "viability at 24 h, 1 µmol/L", "setting": "[1]", "value": 94, "unit": "%"}, {"measurement": "viability at 24 h, 10 µmol/L", "setting": "[1]", "value": 104, "unit": "%"}, {"measurement": "viability at 24 h, 100 µmol/L", "setting": "[1]", "value": 97, "unit": "%"}, {"measurement": "IC50", "setting": "urokinase; [2]", "value": "260 ± 13", "unit": "µM"}]}, {"compound": "CCCCCCCCCCCCCCCC(=O)N[C@@H](CCCNC(=N)N)C(=O)N[C@H](C(=O)N[C@H](C(=O)N[C@@H](CCCCN)C(=O)N[C@@H](CO)C(N)=O)[C@@H](C)O)[C@@H](C)O", "note": "[Peptide 32, Pal-Arg-Thr-Thr-Lys-Ser- NH2] (HELM PEPTIDE1{[CCCCCCCCCCCCCCCC(=O)[*:2]].R.T.T.K.S.[am]}$$$$V2.0)", "values": [{"measurement": "viability at 24 h, 1 µmol/L", "setting": "[1]", "value": 104, "unit": "%"}, {"measurement": "viability at 24 h, 10 µmol/L", "setting": "[1]", "value": 113, "unit": "%"}, {"measurement": "viability at 24 h, 100 µmol/L", "setting": "[1]", "value": 118, "unit": "%"}]}, {"compound": "H-KTTRS-OH [Peptide 9, H-Lys-Thr-Thr-Arg-Ser-OH]", "values": [{"measurement": "IC50", "setting": "thrombin", "value": "4010 ± 200", "unit": "µM"}, {"measurement": "viability at 24 h, 1 µmol/L", "setting": "[1]", "value": 93, "unit": "%"}, {"measurement": "viability at 24 h, 10 µmol/L", "setting": "[1]", "value": 103, "unit": "%"}, {"measurement": "viability at 24 h, 100 µmol/L", "setting": "[1]", "value": 101, "unit": "%"}, {"measurement": "IC50", "setting": "plasmin; [3]", "value": "630 ± 31", "unit": "µM"}]}, {"compound": "H-RTTRS-OH [Peptide 17, H-Arg-Thr-Thr-Arg-Ser-OH]", "values": [{"measurement": "IC50", "setting": "thrombin", "value": "3890 ± 190", "unit": "µM"}, {"measurement": "viability at 24 h, 1 µmol/L", "setting": "[1]", "value": 89, "unit": "%"}, {"measurement": "viability at 24 h, 10 µmol/L", "setting": "[1]", "value": 99, "unit": "%"}, {"measurement": "viability at 24 h, 100 µmol/L", "setting": "[1]", "value": 115, "unit": "%"}, {"measurement": "IC50", "setting": "plasmin; [3]", "value": "280 ± 14", "unit": "µM"}, {"measurement": "IC50", "setting": "plasmin; converted from IC50 of Table 1, read-out: -logIC50 Plasmin (converted)", "value": 288, "unit": "µM"}]}]}
